Among the targets are OXA-48 (Klebsiella pneumoniae, UniProt Q6XEC0); OXA-11 (Pseudomonas aeruginosa, UniProt Q06778); OXA-1 (Escherichia coli, UniProt P13661); SHV-1 (Klebsiella pneumoniae, UniProt P0AD64); CTX-M-15 (Escherichia coli, UniProt Q9EXV5); TEM-1 (Escherichia coli, UniProt P62593); KPC-2 (Klebsiella pneumoniae, UniProt Q9F663).
The target in another test is AmpC (PAE) (Pseudomonas aeruginosa, UniProt P24735). The test can be described thus: biochemical.
A further test concerns the target CMY-37 (Citrobacter freundii, UniProt P05193). The settings on record: read-out: IC50 β-lactamase CMY-37.
A further test concerns K. pneumoniae 6299. The test can be described thus: MIC of compound alone, broth microdilution. In kind it is cell-based. Conditions: Klebsiella pneumoniae; strain 6299; compound alone; read-out: MIC compounds of the invention alone. Here is the method: (§1) Log phase bacterial suspensions were adjusted to a final density of 5×10^5 cfu/mL in cation-adjusted Mueller-Hinton broth (Becton-Dickinson) and added to each well (98 μL). Microplates were incubated for 16-20 h at 35° C. in ambient air. The MIC of the compounds was defined as the lowest concentration of said compounds that prevented bacterial growth as read by visual inspection.
(Broth dilution looks for growth in wells or tubes with falling amounts of substance.)

The test system of another test is E. cloacae P99. The test can be described thus: MIC of compound alone, broth microdilution. In kind it is cell-based. Conditions: Enterobacter cloacae; strain P99; compound alone; read-out: MIC compounds of the invention alone. Here is the method:
as §1

The test system of another test is K. pneumoniae BAA-1898. Briefly: MIC of compound alone, broth microdilution. In kind it is cell-based. The settings on record: Klebsiella pneumoniae, BAA1898; strain BAA-1898; compound alone; read-out: MIC compounds of the invention alone. Here is the method: as §1
For another test, the system named is E. coli 190317. Briefly: MIC of compound alone, broth microdilution. In kind it is cell-based. The settings on record: Escherichia coli; strain 190317; compound alone; read-out: MIC compounds of the invention alone. Here is the method: as §1
In another test the test system is P. aeruginosa CIP107051. Briefly: MIC of compound alone, broth microdilution. The settings on record: Pseudomonas aeruginosa; strain CIP107051; compound alone; read-out: MIC compounds of the invention alone. In kind it is cell-based. Here is the method:
as §1

A further test addresses AmpC (P99) (Enterobacter cloacae, UniProt P05364). The test can be described thus: biochemical.
For a further test, the target named is OXA-15 (Pseudomonas aeruginosa, UniProt Q51574). The test can be described thus: biochemical.

Structures are written as SMILES. Counter-ions that a name gives are not always drawn. Like-named read-outs stand apart in the source and are kept apart here.

One may read the IC50 as the midpoint of a concentration-inhibition curve. One may read the MIC as the lowest concentration that inhibits growth of the organism.

As to `Nc1ncc(C(=O)Nc2ccn(C3=CC4CN(C3)C(=O)N4OS(=O)(=O)[O-])n2)s1.[Na+]` (stereo not drawn) [Example 13, sodium [3-[3-[(2-aminothiazole-5-carbonyl)amino]pyrazol-1-yl]-7-oxo-1,6-diazabicyclo[3.2.1]oct-3-en-6-yl]sulfate], the IC50 against AmpC (PAE) is 8.7 nM; on OXA-48 it was 1.9 nM; at CMY-37 it was 1.1 nM; on OXA-11 it was 4 nM; at OXA-1, 27 nM; at SHV-1, 3.2 nM. For the same molecule, the concentration for half-maximal inhibition (IC50) at CTX-M-15 amounted to 0.62 nM; against TEM-1 it was 0.65 nM; against AmpC (P99), 2.6 nM; against KPC-2, 2.5 nM; on OXA-15, 11 nM. Moreover, the MIC in the test on K. pneumoniae 6299 is above 32 µg/mL; with E. cloacae P99, above 32 µg/mL; in the test on K. pneumoniae BAA-1898 it was above 32 µg/mL; in the test on E. coli 190317, 32 µg/mL; in the test on P. aeruginosa CIP107051, above 32 µg/mL.

Consider `NS(=O)(=O)c1cnn(C2=CC3CN(C2)C(=O)N3OS(=O)(=O)[O-])c1.[Na+]` (stereo not drawn) [Example 16, sodium [7-oxo-3-(4-sulfamoylpyrazol-1-yl)-1,6-diazabicyclo[3.2.1]oct-3-en-6-yl]sulfate], for which the IC50 against AmpC (PAE) came to 180 nM; on OXA-48 it was 12 nM; on CMY-37 it was 21 nM; on OXA-11, 650 nM; against OXA-1, 100 nM; on SHV-1, 3.4 nM. Also, the IC50 on CTX-M-15 amounted to 1.4 nM; against TEM-1, 0.56 nM; against AmpC (P99) it was 13 nM; against KPC-2, 4.6 nM; at OXA-15 it was 42 nM. The MIC is above 32 µg/mL in the test with K. pneumoniae 6299; 32 µg/mL with E. cloacae P99; 32 µg/mL in the test with K. pneumoniae BAA-1898; 8 µg/mL in the test with E. coli 190317; above 32 µg/mL with P. aeruginosa CIP107051.

In the case of `NC(=O)Cc1ccn(C2=CC3CN(C2)C(=O)N3OS(=O)(=O)[O-])n1.[Na+]` (stereo not drawn) [Example 45, sodium [3-[3-(2-amino-2-oxo-ethyl)pyrazol-1-yl]-7-oxo-1,6-diazabicyclo[3.2.1]oct-3-en-6-yl]sulfate], the concentration for half-maximal inhibition (IC50) on AmpC (PAE) amounted to 66 nM; at OXA-48, 18 nM; at CMY-37, 19 nM; against OXA-11 it was 92 nM; against OXA-1, 300 nM; against SHV-1, 4.5 nM. Also, the IC50 against CTX-M-15 came out at 1.3 nM; against TEM-1, 1.4 nM; against AmpC (P99), 32 nM; at KPC-2, 47 nM; on OXA-15, 310 nM. Also, the minimal inhibitory concentration (MIC) with K. pneumoniae 6299 is above 32 µg/mL; in the test on E. cloacae P99, 16 µg/mL; in the test on K. pneumoniae BAA-1898, 32 µg/mL; with E. coli 190317, 4 µg/mL; with P. aeruginosa CIP107051, above 32 µg/mL.

For `O=C1N2CC(n3ccnc3CO)=CC(C2)N1OS(=O)(=O)[O-].[Na+]` (stereo not drawn) [Example 70, sodium [3-[2-(hydroxymethyl)imidazol-1-yl]-7-oxo-1,6-diazabicyclo[3.2.1]oct-3-en-6-yl]sulfate], the IC50 against AmpC (PAE) worked out at 600 nM; against OXA-48 it was 6.2 nM; at CMY-37 it was 120 nM; at OXA-11 it was 170 nM; at OXA-1, 92 nM; at SHV-1, 2.3 nM. For the same molecule, the 50% inhibitory concentration (IC50) against CTX-M-15 stood at 3.5 nM; against TEM-1, 0.63 nM; at AmpC (P99) it was 94 nM; against KPC-2, 51 nM; on OXA-15, 30 nM. Besides, the MIC in the test on K. pneumoniae 6299 was above 32 µg/mL; with E. cloacae P99 it was above 32 µg/mL; in the test with K. pneumoniae BAA-1898, 32 µg/mL; in the test on E. coli 190317, 32 µg/mL; with P. aeruginosa CIP107051, above 32 µg/mL.

As to `O=C1N2CC(n3cc(CO)cn3)=CC(C2)N1OS(=O)(=O)[O-].[Na+]` (stereo not drawn) [Example 71, sodium [3-[4-(hydroxymethyl)pyrazol-1-yl]-7-oxo-1,6-diazabicyclo[3.2.1]oct-3-en-6-yl]sulfate], the half-maximal inhibitory concentration (IC50) against AmpC (PAE) was 47 nM; on OXA-48, 12 nM; on CMY-37, 10 nM; at OXA-11 it was 260 nM; against OXA-1, 450 nM; against SHV-1, 9.6 nM. Further, the IC50 on CTX-M-15 is 0.78 nM; at TEM-1, 1.4 nM; against AmpC (P99) it was 19 nM; on KPC-2, 42 nM; against OXA-15, 55 nM. The minimum inhibitory concentration (MIC) in the test on K. pneumoniae 6299 was 32 µg/mL; with E. cloacae P99, 16 µg/mL; in the test on K. pneumoniae BAA-1898, 16 µg/mL; in the test with E. coli 190317, 4 µg/mL; in the test with P. aeruginosa CIP107051 it was above 32 µg/mL.

On to `O=C1N2CC(n3cc(F)cn3)=CC(C2)N1OS(=O)(=O)[O-].[Na+]` (stereo not drawn) [Example 14, sodium (7-oxo-3-(4-fluoropyrazol-1-yl)-1,6-diazabicyclo[3.2.1]oct-3-en-6-yl) sulfate], for which the IC50 at AmpC (PAE) came to 21 nM; at OXA-48, 8.6 nM; at CMY-37 it was 10 nM; on OXA-11 it was 34 nM; against OXA-1, 82 nM; at SHV-1 it was 4 nM. Further, the IC50 at CTX-M-15 stood at 1.8 nM; against TEM-1 it was 0.87 nM; on AmpC (P99), 17 nM; against KPC-2 it was 17 nM; on OXA-15, 52 nM. In addition, the minimal inhibitory concentration (MIC) with K. pneumoniae 6299 was 16 µg/mL; with E. cloacae P99 it was 16 µg/mL; with K. pneumoniae BAA-1898, 8 µg/mL; with E. coli 190317, 4 µg/mL; in the test with P. aeruginosa CIP107051 it was above 32 µg/mL.

`O=C(Nc1ncns1)c1ccn(C2=CC3CN(C2)C(=O)N3OS(=O)(=O)O)n1` (stereo not drawn) [Example 79, [7-oxo-3-[3-(1,2,4-thiadiazol-5-ylcarbamoyl)pyrazol-1-yl]-1,6-diazabicyclo[3.2.1]oct-3-en-6-yl]hydrogen sulfate]: the 50% inhibitory concentration (IC50) against AmpC (PAE) came out at 95 nM; at OXA-48, 4.7 nM; on CMY-37 (class (C), nitrocefin 200 μM, 30-min pre-incubation, enzyme 0.2 nM) it was 8.6 nM; at OXA-11 it was 19 nM; against OXA-1 it was 65 nM; on SHV-1 it was 0.98 nM. The half-maximal inhibitory concentration (IC50) was 0.46 nM against CTX-M-15; 0.36 nM against TEM-1; 14 nM against AmpC (P99); 4.4 nM at KPC-2; 46 nM on OXA-15. Besides, the minimal inhibitory concentration (MIC) in the test on K. pneumoniae 6299, with E. cloacae P99, with K. pneumoniae BAA-1898, with E. coli 190317 and in the test with P. aeruginosa CIP107051 was above 32 µg/mL each time.

As to `CC(=O)c1cnn(C2=CC3CN(C2)C(=O)N3OS(=O)(=O)[O-])c1.[Na+]` (stereo not drawn) [Example 40, sodium [3-(4-acetylpyrazol-1-yl)-7-oxo-1,6-diazabicyclo[3.2.1]oct-3-en-6-yl]sulfate], the IC50 worked out at 260 nM on AmpC (PAE); 6.3 nM against OXA-48; 8.3 nM on CMY-37; 95 nM against OXA-11; 150 nM at OXA-1; 1.8 nM against SHV-1. Moreover, the 50% inhibitory concentration (IC50) against CTX-M-15 turned out to be 0.91 nM; at TEM-1, 0.35 nM; against AmpC (P99), 7.5 nM; against KPC-2, 3.4 nM; against OXA-15, 8.6 nM. Also, the MIC was above 32 µg/mL in the test on K. pneumoniae 6299; above 32 µg/mL in the test on E. cloacae P99; above 32 µg/mL in the test with K. pneumoniae BAA-1898; 32 µg/mL in the test on E. coli 190317; above 32 µg/mL in the test with P. aeruginosa CIP107051.

For `O=C1N2CC(n3ccc(F)n3)=CC(C2)N1OS(=O)(=O)[O-].[Na+]` (stereo not drawn) [Example 18, sodium [7-oxo-3-(3-fluoropyrazol-1-yl)-1,6-diazabicyclo[3.2.1]oct-3-en-6-yl]sulfate], the IC50 amounted to 43 nM on AmpC (PAE); 8.2 nM at OXA-48; 18 nM at CMY-37; 46 nM against OXA-11; 96 nM on OXA-1; 2.8 nM against SHV-1. The IC50 on CTX-M-15 stood at 0.65 nM; on TEM-1, 0.43 nM; against AmpC (P99) it was 24 nM; against KPC-2, 13 nM; against OXA-15, 78 nM. In addition, the MIC with K. pneumoniae 6299 is 4 µg/mL; in the test on E. cloacae P99, 8 µg/mL; in the test with K. pneumoniae BAA-1898, 8 µg/mL; in the test on E. coli 190317 it was 1 µg/mL; in the test on P. aeruginosa CIP107051, above 32 µg/mL.

These data come from US10722520B2, “Heterocyclic compounds and their use in preventing or treating bacterial infections” (MUTABILIS, priority 2016, dated 2020).
